Data reported in patent US6255323A, “Cyanoguanidine compounds” (Shionogi Bioresearch Corp., priority 2000, dated 2001).

How the values were obtained:
[1] = test system: Non-Hodgkin's B cell lymphoma (RL) tumor; test: RL human tumor xenograft regression assay; type: in vivo, human tumor in female NIH Swiss nude mice; conditions: for gross toxicity: 2780 75, 2889 90, 2897 75, 2900 60, 2727 60 mg/kg (2727: reduced to once per day); for tumor regression: within the first two weeks of dosing, IV morning + IP afternoon, 2780 75, 2889 90, 2897 75, 2900 60, 2727 60 mg/kg; for average tumor volume, % of tumor volume obtained in the control: Day 21, 75 mg/kg
Method: The antitumor activity of a cyanoguanidine compound of this invention can also be evaluated by in vivo testing, e.g., human tumor xenograft regression assays. Animals bearing established tumors are treated with a test compound for a three-week period. The growth of the tumors and the general health of the animal are monitored during the three-week treatment and for two more weeks after treatment to determine if tumor regrowth occurs. See Example 150 below.
(§1) From the in vitro results obtained, cyanoguanidine compounds were selected for human tumor xenograft regression assays. Animals bearing established tumors (RL) were treated with a test compound for a three-week period. The growth of the tumors and the general health of the animals were monitored during the treatment and for an additional two weeks after dosing had been terminated to determine if tumor regrowth took place.
(§2) Non-Hodgkin's B cell lymphoma (RL) tumor cells, which were adapted to grow as solid tumors, were implanted by an intradermal injection of a tumor cell suspension (30×10^6 cells in 0. 1 mL media) in the flanks of female NIH Swiss nude mice (Taconic Labs). Each mouse was implanted with one tumor and 6-8 mice per group were used.
(§3) Dosing was initiated one week after implantation (Day 1), when tumors reached approximately 50 to 100 mm^3 in volume, with a test compound or vehicle five times per week for three weeks either intravenously (IV) or intraperitoneally (IP). Cyclophosphamide (CTX, Sigma) was used as a standard in the assays. Compounds were first dissolved in DMSO (Sigma) and formulated with 20% Cremophor RH40 (BASF) to a final concentration of 10% DMSO/18% Cremophor. The formulated solution was made fresh daily.
(§4) Tumors, assumed to be hemi-ellipsoid in shape, were measured with calipers in three dimensions. Tumor volumes were calculated using the equation:
(§5) where L=length, W=width, and H=height of the tumor. Animals were weighed and their general health was monitored during the course of the assay. When tumors became necrotic or if animals became moribund, the animals were euthanized by CO2 asphyxiation. Student's t test was used to determine if there was a significant difference between the data obtained in the compound treated group and the vehicle treated group.
In a preliminary RL tumor growth regression assay, eight compounds were administered twice a day (via IV route in the morning and IP route in the afternoon) for five days per week for a three-week period. […] For comparison, cyclophosphamide, reduced the average tumor volume to 2% of control by Day 18. […] Compounds SBR-11-2899 (75 mg/kg), SBR-11-2750 (75 mg/kg), and SBR-11-2749 (75 mg/kg) reduced the average tumor volume to 10%, 14%, and 18% of the tumor volume obtained in the control on Day 21, respectively. One compound, SBR-11-4483 (60 mg/kg) was administered once per day (via IV route) for a two-week period. By day 19, a reduction of the average tumor volume to 1% was observed.

[2] = test system: Non-Hodgkin's B cell lymphoma (RL) tumor; test: RL tumor growth regression assay, dose dependence; type: in vivo; conditions: for weight loss: all mice except one CTX-treated mouse; for effect on tumor volume (in words): three doses
Method: as §1, §2, §3, §4, §5
The ability of compounds to act in a dose dependent manner was assayed in an RL tumor growth regression assay using compounds SBR-11-2897 and SBR-11-2780.

[3] = test system: tumor cell line (PC-3) versus normal cell line (CV-1); test: Tumor cell selectivity: IC50 normal cell line (CV-1) versus tumor cell line (PC-3); type: cell-based, human (PC-3); monkey (CV-1, transformed monkey kidney cells); conditions: CV-1 normal cell line vs PC-3 tumor cell line
Method: The antitumor activity of a cyanoguanidine compound of this invention can be evaluated by MTS colorimetric assay (see Example 149 below). Results obtained by using cell lines of various types of tumors are compared with those obtained by using cell lines of normal cells in this assay. Viability of the cells in each cell line is estimated by measuring the cellular conversion of a tetrazolium salt after incubating the cells in a solution containing a test cyanoguanidine compound in a 96 well plate. IC50 values obtained by using an identical test compound on normal cells and cells of a particular tumor cell line are compared and their ratio (IC50 normal cell /IC50 cancer cell) indicates the cancer selectivity of that test compound. The higher the ratio, the higher the selectivity of the test compound towards that particular type of cancer cell.
In the secondary screening, IC50 values were determined. Cells were seeded at a low cell density in 96 well flat-bottom plates and incubated for 24 hours at 37° C. in a 7% CO2 atmosphere. […]

[4] = twice a day IV + IP, 5 days/week, 3 weeks, 2780 75, 2889 90, 2897 75, 2900 60 mg/kg
[5] = twice a day IV + IP, 5 days/week, 3 weeks

Row | SMILES | weight loss [1, 4] | gross toxicity [1, 5] | tumor regression ([1]; 5 days/week) | also measured
1 | Cc1cc(C)c(S(=O)(=O)Nc2ccc(CNC(=NC#N)Nc3ccncc3)cc2)c(C)c1 [SBR-11-2889, 2,4,6-Trimethyl-N-(4-(N'-cyano-N"-pyridin-4-yl-guanidinomethyl)-phenyl)-benzenesulfonamide] | less than 10% | little gross toxicity | completely regressed all tumors | –
2 | Cc1c(C)c2c(c(C)c1O)CCC(C)(C(=O)Nc1ccc(CNC(=NC#N)Nc3ccncc3)cc1)O2 (stereo not shown) [SBR-11-2780, 6-Hydroxy-2,5,7,8-tetramethyl-chroman-2-carboxylic acid (4-(N'-cyano-N"-pyridin-4-yl-guanidinomethyl)-phenyl)-amide] | less than 10% | little gross toxicity | completely regressed all tumors | average tumor volume, % of control group ([2]; 20 mg/kg): 86%; average tumor volume, % of control group ([2]; 40 mg/kg): 24%; average tumor volume, % of control group ([2]; 80 mg/kg): 3%; weight loss [2]: Less than 10%; effect on tumor volume (in words) [2]: dose dependent effect
3 | N#CN=C(NCc1ccc(NC(=O)c2ccccc2Cc2ccccc2)cc1)Nc1ccncc1 [SBR-11-2750, 2-Benzyl-N-(4-(N'-cyano-N"-pyridin-4-yl-guanidinomethyl)-phenyl)-benzamide] | – | – | – | average tumor volume, % of tumor volume obtained in the control ([1]; twice a day IV + IP): 14%
4 | N#CN=C(NCc1ccc(NC(=O)C2c3ccccc3-c3ccccc32)cc1)Nc1ccncc1 [SBR-11-2727, 9H-fluorene-9-carboxylic acid (4-(N'-cyano-N"-pyridin-4-yl-guanidinomethyl)-phenyl)-amide] | – | signs of gross toxicity within the first week | completely regressed all tumors | –
5 | N#CN=C(NCc1ccc(NS(=O)(=O)c2cccc(C(F)(F)F)c2)cc1)Nc1ccncc1 [SBR-11-2899, N-(4-(N'-Cyano-N"-pyridin-4-yl-guanidinomethyl)-phenyl)-3-trifluoromethyl-benzenesulfonamide] | – | – | – | average tumor volume, % of tumor volume obtained in the control ([1]; twice a day IV + IP): 10%
6 | CC(=O)O[C@H]1C(=O)[C@@]2(C)[C@H]([C@H](OC(=O)c3ccccc3)[C@]3(O)C[C@H](OC(=O)[C@H](O)[C@@H](NC(=O)c4ccccc4)c4ccccc4)C(C)=C1C3(C)C)[C@]1(OC(C)=O)CO[C@@H]1C[C@@H]2O [Taxol] | – | – | – | selectivity of tumor cells (IC50 normal cell /IC50 cancer cell) [3]: 20 fold
7 | O=P1(N(CCCl)CCCl)NCCCO1 (stereo not shown) [cyclophosphamide, Cyclophosphamide, reference compound] | – | – | – | average tumor volume, % of control ([1]; by Day 18, cyclophosphamide standard): 2%
8 | N#CNC(=Nc1ccncc1)NCCN1CCC(OC(c2ccccc2)c2ccccc2)CC1 [SBR-11-4483, N-[2-(4-Benzhydryloxy-piperidin-1-yl)-ethyl]-N'-cyano-N"-pyridin-4-yl-guanidine] | – | – | – | weight loss ([1]; 60 mg/kg once per day IV, two weeks): less than 10%; reduction of the average tumor volume to ([1]; by day 19, 60 mg/kg once per day IV, two weeks): 1%
9 | CN(C)c1cccc2c(S(=O)(=O)Nc3ccc(CNC(=NC#N)Nc4ccncc4)cc3)cccc12 [SBR-11-2897, 5-Dimethylamino-naphthalene-1-sulfonic acid (4-(N'-cyano-N"-pyridin-4-yl-guanidinomethyl)-phenyl)-amide] | less than 10% | little gross toxicity | completely regressed all tumors | weight loss [2]: Less than 10%; effect on tumor volume (in words) [2]: almost complete reduction of average tumor volumes
10 | COc1ccc2cc(C(C)C(=O)Nc3ccc(CNC(=NC#N)Nc4ccncc4)cc3)ccc2c1 (stereo not shown) [SBR-11-2749, 2-(6-Methoxy-naphthalen-2-yl)-N-(4-(N'-cyano-N"-pyridin-4-yl-guanidinomethyl)-phenyl)-propionamide] | – | – | – | average tumor volume, % of tumor volume obtained in the control ([1]; twice a day IV + IP): 18%
11 | N#CN=C(NCc1ccc(NS(=O)(=O)c2cccc3ccccc23)cc1)Nc1ccncc1 [SBR-11-2900, Naphthalene-1-sulfonic acid (4-(N'-cyano-N"-pyridin-4-yl-guanidinomethyl)-phenyl)-amide] | less than 10% | little gross toxicity | completely regressed all tumors | –
